Usually Kd stands for the constant that tells how readily two partners part at equilibrium. The low end stands for higher affinity, the high end for lower affinity.

Experiment [1] concerns the target T1, THAS (tetrahydroalstonine synthase) (Catharanthus roseus, UniProt A0A0F6SD02).
T1 construct: His-tagged, vector pOPINF, expressed in E. coli Rosetta 2 pLysS, HisTrap purified
T1 sequence (A0A0F6SD02 1-356): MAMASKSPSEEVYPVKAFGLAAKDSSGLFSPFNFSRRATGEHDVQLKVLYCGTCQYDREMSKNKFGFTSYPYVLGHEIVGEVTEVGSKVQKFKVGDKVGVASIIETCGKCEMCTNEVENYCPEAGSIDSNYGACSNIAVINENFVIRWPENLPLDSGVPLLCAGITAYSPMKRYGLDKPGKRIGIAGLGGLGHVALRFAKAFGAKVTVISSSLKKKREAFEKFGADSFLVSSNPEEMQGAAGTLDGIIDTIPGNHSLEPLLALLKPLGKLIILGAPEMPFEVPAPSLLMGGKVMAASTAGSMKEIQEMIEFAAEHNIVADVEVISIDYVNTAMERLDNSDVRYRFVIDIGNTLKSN
Put plainly: isothermal titration calorimetry. Format: binding.

For experiment [2], the target named is T2, SGD (strictosidine glucosidase) (Catharanthus roseus, UniProt Q9M7N7).
T2 construct: recombinant, purified as THAS, expression system of Yerkes et al. 2008
Put plainly: in situ deglycosylation, […] min incubation. It counts as biochemical. The following applies: strictosidine aglycone formed.

Regarding `NC(=O)C1=CN([C@@H]2O[C@H](COP(=O)(O)OP(=O)(O)OC[C@H]3O[C@@H](n4cnc5c(N)ncnc54)[C@H](OP(=O)(O)O)[C@@H]3O)[C@@H](O)[C@H]2O)C=CC1` [NADPH], in experiment [1], the Kd came out at 1500 ± 100 nM.

As for `C=C[C@H]1[C@H](O[C@@H]2O[C@H](CO)[C@@H](O)[C@H](O)[C@H]2O)OC=C(C(=O)OC)[C@H]1C[C@@H]1NCCc2c1[nH]c1ccccc21` [strictosidine], the “in situ deglycosylation, 10 min incubation” value in experiment [2] was “strictosidine was completely converted to the aglycone”.

The values above are taken from article PMC4372254, “Unlocking the Diversity of Alkaloids in Catharanthus roseus: Nuclear Localization Suggests Metabolic Channeling in Secondary Metabolism” (Chemistry & Biology, 2015).
